The record followed here is ChEMBL document CHEMBL1201862, “PubChem BioAssay data set” (2004).

Test systems include A549; BT-549; CAKI-1; HCC 2998; HCT-116; HOP-62; LOX IMVI; MDA-MB-231; MDA-MB-435; Malme-3M; NCI/ADR-RES; OVCAR-8; SF-539; SK-MEL-28; T47D; U-251; NCI-H23; OVCAR-3; OVCAR-5; SK-OV-3.
Holding throughout (experiment): NCI tumour cell line growth inhibition, 48 h

Structures are written as SMILES.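 Growth conditions: 96-well plates. Treatment: test compound, 48 hours, 5 concentrations. Analysis: linear interpolation between bracketing concentrations; unreached endpoints set to highest concentration. GI50 is the concentration that inhibits growth by half.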 The source made the active and inactive calls. No stated cut-off is given here; in the data, active = GI50 up to about 1.1 µM and inactive = higher.

Turning to `CC(C)CC(=O)NC(NC(C)C)(C(F)(F)F)C(F)(F)F`, the GI50 in the assay on A549, in the assay with BT-549, in the assay with CAKI-1, with HCC 2998, with HCT-116 and in the assay on HOP-62 was > 100 µM (inactive) throughout. Besides, the GI50 in the assay on LOX IMVI, in the assay with MDA-MB-231, in the assay with MDA-MB-435, in the assay with Malme-3M, in the assay on NCI/ADR-RES and in the assay on OVCAR-8 was > 100 µM (inactive) each time. Further, the GI50 in the assay on SF-539, in the assay with SK-MEL-28, with T47D and in the assay with U-251 was > 100 µM (inactive) throughout.

Consider `N#CC(Cc1ccccc1Br)N(CCC1=CCCCC1)C(c1ccccc1)c1ccccc1` (stereo not drawn), for which the GI50 in the assay with A549 was 93.3 µM (inactive); in the assay with BT-549, > 100 µM (inactive); in the assay on CAKI-1, > 100 µM (inactive); in the assay on HCC 2998 it was 18.6 µM (inactive); in the assay on HCT-116, 32.8 µM (inactive); with HOP-62, > 100 µM (inactive). The GI50 in the assay on MDA-MB-231 was > 100 µM (inactive); with MDA-MB-435, 30.4 µM (inactive); with Malme-3M, > 100 µM (inactive); with NCI-H23, 27.8 µM (inactive); in the assay on NCI/ADR-RES, > 100 µM (inactive); with OVCAR-3, 75.5 µM (inactive). Moreover, the GI50 in the assay with OVCAR-5 is > 100 µM (inactive); in the assay on OVCAR-8 it was 76 µM (inactive); with SK-MEL-28 it was > 100 µM (inactive); in the assay with SK-OV-3 it was > 100 µM (inactive); in the assay on T47D it was 38.3 µM (inactive); in the assay on U-251, 83.8 µM (inactive).

Regarding `COc1ccc(/N=C2\C(=N/c3ccc(OC)cc3)N(c3ccccc3[N+](=O)[O-])C(=S)N2c2ccc(OC)cc2)cc1`, the GI50 is > 100 µM (inactive) in the assay with A549; 34.4 µM (inactive) in the assay on BT-549; 81.5 µM (inactive) in the assay with CAKI-1; > 100 µM (inactive) with HCC 2998; 35.6 µM (inactive) in the assay with HCT-116; 71.3 µM (inactive) in the assay with HOP-62. For the same compound, the GI50 in the assay on MDA-MB-231 is 7.78 µM (inactive); in the assay with MDA-MB-435 it was > 100 µM (inactive); in the assay on NCI-H23, > 100 µM (inactive); in the assay with NCI/ADR-RES, > 100 µM (inactive); with OVCAR-3, > 100 µM (inactive); in the assay with OVCAR-5 it was > 100 µM (inactive). Moreover, the GI50 with OVCAR-8 was > 100 µM (inactive); in the assay with SF-539, > 100 µM (inactive); in the assay on SK-MEL-28 it was > 100 µM (inactive); in the assay on SK-OV-3, > 100 µM (inactive); in the assay on T47D it was 26 µM (inactive); with U-251 it was > 100 µM (inactive).

Take `COc1cccc(/N=N/C(=NNC(=O)c2ccc(C)cc2)c2ccc(N(C)C)cc2)c1`: the GI50 in the assay with A549, with BT-549, in the assay on CAKI-1, in the assay on HCC 2998, in the assay with HCT-116 and in the assay with LOX IMVI was > 100 µM (inactive) each time. Also, the GI50 in the assay on MDA-MB-231 was > 100 µM (inactive); in the assay on MDA-MB-435, 21.1 µM (inactive); in the assay with NCI-H23 it was > 100 µM (inactive); in the assay with NCI/ADR-RES, > 100 µM (inactive); in the assay with OVCAR-3 it was 65.2 µM (inactive); in the assay with OVCAR-5 it was > 100 µM (inactive). Moreover, the GI50 was > 100 µM (inactive) with OVCAR-8; > 100 µM (inactive) in the assay with SF-539; > 100 µM (inactive) in the assay with SK-MEL-28; > 100 µM (inactive) with SK-OV-3; 0.832 µM (active) in the assay on T47D; > 100 µM (inactive) in the assay with U-251.

With `N#C/C(=C\N1CCNC1=S)C(=O)c1ccc2ccccc2c1`, the GI50 in the assay on A549, in the assay with BT-549, in the assay on CAKI-1, in the assay on HCC 2998, in the assay on HCT-116 and in the assay with HOP-62 was > 100 µM (inactive) each time. The GI50 in the assay on LOX IMVI is > 100 µM (inactive); with MDA-MB-231, > 100 µM (inactive); in the assay on MDA-MB-435, 89.1 µM (inactive); in the assay on NCI-H23, > 100 µM (inactive); in the assay with NCI/ADR-RES, > 100 µM (inactive); in the assay with OVCAR-3, > 100 µM (inactive). Moreover, the GI50 with OVCAR-5 was > 100 µM (inactive); with OVCAR-8 it was > 100 µM (inactive); with SF-539 it was > 100 µM (inactive); in the assay with SK-MEL-28 it was > 100 µM (inactive); in the assay on SK-OV-3 it was > 100 µM (inactive); with T47D it was 67 µM (inactive). The GI50 in the assay with U-251 is > 100 µM (inactive).

As to `Cc1cc(Cc2c(F)c(F)c(Cc3cc(C)no3)c(F)c2F)on1`, the GI50 in the assay on A549 was 12.9 µM (inactive); with BT-549, > 100 µM (inactive); in the assay on CAKI-1 it was 12.2 µM (inactive); in the assay with HCT-116, > 100 µM (inactive); in the assay with HOP-62, 25.4 µM (inactive); in the assay on LOX IMVI, 80.4 µM (inactive). Besides, the GI50 in the assay on MDA-MB-231 is 46.6 µM (inactive); in the assay on MDA-MB-435, > 100 µM (inactive); in the assay with Malme-3M, > 100 µM (inactive); in the assay on NCI-H23, 65.8 µM (inactive); in the assay on NCI/ADR-RES it was > 100 µM (inactive); with OVCAR-3 it was > 100 µM (inactive). For the same compound, the GI50 in the assay on OVCAR-5 was > 100 µM (inactive); in the assay on OVCAR-8, 83.9 µM (inactive); in the assay on SF-539 it was 47.6 µM (inactive); with SK-MEL-28, > 100 µM (inactive); in the assay on SK-OV-3, 38.5 µM (inactive); in the assay with T47D, > 100 µM (inactive). In addition, the GI50 in the assay on U-251 is 64.1 µM (inactive).

As to `CC(CC[C@@H](O)C(C)(C)O)C1[C@@H](O)CC2(C)C3CC(O)C4C(C)(C)[C@@H](OC5OC(CO)C(O)C(O)C5O)CC[C@@]45C[C@@]35CC[C@]12C` (stereo partly drawn), the GI50 in the assay on A549, in the assay on BT-549, in the assay on CAKI-1, with HCC 2998, in the assay with HCT-116 and in the assay on HOP-62 was > 10 µM (inactive) throughout. Moreover, the GI50 in the assay on MDA-MB-231, in the assay with MDA-MB-435, in the assay on Malme-3M, in the assay on NCI-H23, in the assay with NCI/ADR-RES and in the assay on OVCAR-3 was > 10 µM (inactive) each time. Further, the GI50 in the assay with OVCAR-5, with OVCAR-8, in the assay on SF-539, in the assay with SK-MEL-28, with SK-OV-3 and in the assay on T47D was > 10 µM (inactive) in each case. Also, the GI50 with U-251 is > 10 µM (inactive).

As for `O=P1(O)c2ccccc2CSCc2ccccc21`, the GI50 with A549, in the assay on BT-549, in the assay with CAKI-1, in the assay on HCC 2998, with HCT-116 and in the assay with HOP-62 was > 100 µM (inactive) each time. The GI50 in the assay with LOX IMVI, in the assay with MDA-MB-231, in the assay on MDA-MB-435, in the assay with NCI-H23, in the assay on NCI/ADR-RES and in the assay on OVCAR-3 was > 100 µM (inactive) in each case. In addition, the GI50 with OVCAR-5, in the assay on OVCAR-8, with SF-539, with SK-MEL-28, in the assay with SK-OV-3 and in the assay with T47D was > 100 µM (inactive) each time. Besides, the GI50 in the assay on U-251 was > 100 µM (inactive).

Regarding `COc1cc(O)c(C(=O)/C=C/c2ccc(O)cc2)cc1Oc1ccc(/C=C/C(=O)c2ccc(O)cc2O)cc1` [RHUSCHALCONE III], the GI50 with A549 is 14.8 µM (inactive); in the assay with BT-549 it was 8.79 µM (inactive); in the assay on CAKI-1, 14.2 µM (inactive); with HCT-116, 7.85 µM (inactive); in the assay on HOP-62 it was 10.8 µM (inactive); with LOX IMVI, 8.45 µM (inactive). For the same compound, the GI50 is 15 µM (inactive) in the assay on MDA-MB-231; 8.77 µM (inactive) in the assay on MDA-MB-435; 8.38 µM (inactive) in the assay with Malme-3M; 11.1 µM (inactive) with NCI-H23; 10.1 µM (inactive) in the assay on NCI/ADR-RES; 8.07 µM (inactive) with OVCAR-3. For the same compound, the GI50 was 13.7 µM (inactive) in the assay on OVCAR-5; 9.02 µM (inactive) with OVCAR-8; 8.89 µM (inactive) in the assay with SF-539; 8.41 µM (inactive) with SK-MEL-28; 8.36 µM (inactive) with SK-OV-3; 15.3 µM (inactive) with T47D. For the same compound, the GI50 in the assay on U-251 is 7.98 µM (inactive).

As for `COc1cc2ccnc3c2c(c1O)N(C)C=C3`, the GI50 with A549 was 20.2 µM (inactive); in the assay on BT-549, 9.08 µM (inactive); in the assay with CAKI-1 it was 4.92 µM (inactive); with HCC 2998 it was 23 µM (inactive); in the assay on HCT-116, 4 µM (inactive); in the assay with HOP-62 it was 22 µM (inactive). For the same compound, the GI50 in the assay on LOX IMVI was 8.39 µM (inactive); in the assay with MDA-MB-231, 22.1 µM (inactive); in the assay with MDA-MB-435, 11.6 µM (inactive); with Malme-3M it was 6.12 µM (inactive); with NCI-H23, 17.1 µM (inactive); with NCI/ADR-RES it was 18.7 µM (inactive). The GI50 in the assay with OVCAR-3 is 4.62 µM (inactive); in the assay on OVCAR-5, 16.7 µM (inactive); in the assay on OVCAR-8, 9.53 µM (inactive); in the assay with SK-MEL-28, 24.9 µM (inactive); in the assay with SK-OV-3 it was 13.4 µM (inactive); with T47D, 7.38 µM (inactive). Besides, the GI50 in the assay on U-251 is 24.9 µM (inactive).

Consider `C=C(Br)COc1ccc2c(C)cc(=O)oc2c1`, for which the GI50 with A549 is 61.5 µM (inactive); in the assay with BT-549 it was > 100 µM (inactive); in the assay on CAKI-1, 99.1 µM (inactive); with HCC 2998, 95.3 µM (inactive); in the assay with HCT-116, 59.3 µM (inactive); in the assay on HOP-62 it was 69.8 µM (inactive). Moreover, the GI50 is > 100 µM (inactive) with LOX IMVI; 0.951 µM (active) with MDA-MB-231; 56.1 µM (inactive) in the assay on MDA-MB-435; > 100 µM (inactive) with Malme-3M; 90.4 µM (inactive) with NCI-H23; 47.4 µM (inactive) in the assay on NCI/ADR-RES. Further, the GI50 in the assay with OVCAR-3 was 86.3 µM (inactive); with OVCAR-5, > 100 µM (inactive); in the assay with OVCAR-8, 47.9 µM (inactive); with SF-539 it was 67 µM (inactive); in the assay on SK-MEL-28, > 100 µM (inactive); in the assay with T47D, 20.2 µM (inactive). Also, the GI50 with U-251 was 65.3 µM (inactive).
